Measured values as given in patent US10035777B2, “Heterocyclic kinase inhibitors” (priority 2014, dated 2018).

What follows are molecules tested against GST-Xa-hAAK1 (Homo sapiens (Human), UniProt Q2M2I8) (assay: biochemical). Details: not given.
Method: The assays were performed in U-bottom 384-well plates. […] The reactions were initiated by the combination of bacterially expressed, GST-Xa-hAAK1 with substrates and test compounds. The reactions were incubated at room temperature for 3 hours and terminated by adding 60 μl of 35 mM EDTA buffer to each sample. The reactions were analyzed on the Caliper LabChip 3000 (Caliper, Hopkinton, Mass.) by electrophoretic separation of the fluorescent substrate and phosphorylated product. […] Compounds were dissolved at 10 mM in dimethylsulfoxide (DMSO) and evaluated at eleven concentrations. IC50 values were derived by non-linear regression analysis.

Sequence of GST-Xa-hAAK1 (Q2M2I8 whole entry): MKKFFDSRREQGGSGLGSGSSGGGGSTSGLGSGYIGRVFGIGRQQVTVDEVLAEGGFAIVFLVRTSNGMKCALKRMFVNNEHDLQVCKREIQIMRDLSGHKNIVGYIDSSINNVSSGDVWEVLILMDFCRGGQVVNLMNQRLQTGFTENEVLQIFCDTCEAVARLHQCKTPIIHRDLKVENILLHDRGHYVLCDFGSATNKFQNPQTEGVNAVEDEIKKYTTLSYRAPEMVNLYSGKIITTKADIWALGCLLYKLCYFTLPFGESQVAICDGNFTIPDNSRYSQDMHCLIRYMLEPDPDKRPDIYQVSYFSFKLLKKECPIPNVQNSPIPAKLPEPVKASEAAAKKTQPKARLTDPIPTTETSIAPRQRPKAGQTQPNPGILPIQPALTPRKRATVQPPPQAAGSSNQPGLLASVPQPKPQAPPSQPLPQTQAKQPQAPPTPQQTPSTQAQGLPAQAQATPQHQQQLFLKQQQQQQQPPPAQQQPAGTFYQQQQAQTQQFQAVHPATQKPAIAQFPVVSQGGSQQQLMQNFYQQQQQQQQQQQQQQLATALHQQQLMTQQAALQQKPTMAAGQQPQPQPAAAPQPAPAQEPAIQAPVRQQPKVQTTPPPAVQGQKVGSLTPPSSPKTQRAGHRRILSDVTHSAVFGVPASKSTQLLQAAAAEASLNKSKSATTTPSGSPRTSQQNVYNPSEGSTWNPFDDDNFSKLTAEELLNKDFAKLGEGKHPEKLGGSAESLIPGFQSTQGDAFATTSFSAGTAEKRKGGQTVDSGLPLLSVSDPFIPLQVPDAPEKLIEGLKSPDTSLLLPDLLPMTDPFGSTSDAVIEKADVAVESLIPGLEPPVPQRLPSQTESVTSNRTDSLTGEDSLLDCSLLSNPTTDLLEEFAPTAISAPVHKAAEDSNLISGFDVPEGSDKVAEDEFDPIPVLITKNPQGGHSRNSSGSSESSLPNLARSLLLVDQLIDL

| SMILES | IC50 |
| --- | --- |
| CC(C(N)c1nc2ccc(-c3ccncc3)cc2[nH]1)C(F)(F)F (single isomer, unassigned) [Example 52, 3,3,3-trifluoro-2-methyl-1-(6-(pyridin-4-yl)-1H-benzo[d]imidazol-2-yl)propan-1-amine] | 0.232 µM |
| CC(C)C[C@@H](N)c1nc2cc(-c3ccncc3)ccc2[nH]1 [Example 1, (R)-3-methyl-1-(5-(pyridin-4-yl)-1H-benzo[d]imidazol-2-yl)butan-1-amine] | 0.037 µM |
| CC(C)C[C@@H](N)c1nc2cc(-c3cc[nH]n3)ccc2[nH]1 [Example 3, (R)-1-(5-(1H-pyrazol-3-yl)-1H-benzo[d]imidazol-2-yl)-3-methylbutan-1-amine] | 0.056 µM |
| CC(C)C[C@@H](N)c1nc2cc(-c3cnco3)ccc2[nH]1 [Example 4, (R)-3-methyl-1-(5-(oxazol-5-yl)-1H-benzo[d]imidazol-2-yl)butan-1-amine] | 0.052 µM |
| CC(C)C[C@@H](N)c1nc2cc(-c3ccnc4[nH]ccc34)ccc2[nH]1 [Example 6, (R)-1-(5-(1H-pyrrolo[2,3-b]pyridin-4-yl)-1H-benzo[d]imidazol-2-yl)-3-methylbutan-1-amine] | 0.005 µM |
| COc1cc(-c2ccncc2)cc2nc([C@H](N)CC(C)C)[nH]c12 [Example 22, (R)-1-(7-methoxy-5-(pyridin-4-yl)-1H-benzo[d]imidazol-2-yl)-3-methylbutan-1-amine] | 0.052 µM |
| COc1cc2nc([C@H](N)CC(C)C)[nH]c2cc1-c1cnco1 [Example 29, (R)-1-(5-methoxy-6-(oxazol-5-yl)-1H-benzo[d]imidazol-2-yl)-3-methylbutan-1-amine] | 0.012 µM |
| CCn1c([C@H](N)CC(C)C)nc2ccc(-c3ccncc3)cc21 [Example 33, (R)-1-(1-ethyl-6-(pyridin-4-yl)-1H-benzo[d]imidazol-2-yl)-3-methylbutan-1-amine] | 0.108 µM |
| CC(C)C[C@@H](N)c1nc2ccc(-c3ccncc3)cc2n1CC(F)(F)F [Example 37, (R)-3-methyl-1-(6-(pyridin-4-yl)-1-(2,2,2-trifluoroethyl)-1H-benzo[d]imidazol-2-yl)butan-1-amine] | 0.019 µM |

Same assay, conditions: ATP 22 μM; GST-Xa-hAAK1 3.5 nM; room temperature for 3 hours; Caliper LabChip 3000; read-out: AAK1 IC50

| SMILES | IC50 |
| --- | --- |
| CC(C(N)c1nc2ccc(-c3ccncc3)cc2[nH]1)C(F)(F)F (single isomer, unassigned) [Example 53, 3,3,3-trifluoro-2-methyl-1-(6-(pyridin-4-yl)-1H-benzo[d]imidazol-2-yl)propan-1-amine] | 0.521 µM |
| CC(C)C[C@H](N)c1nc2ccc(-c3ccncc3)cc2[nH]1 [Example 2, (S)-3-methyl-1-(6-(pyridin-4-yl)-1H-benzo[d]imidazol-2-yl)butan-1-amine] | 0.053 µM |
| CC(C)C[C@H](N)c1nc2cc(-c3cnco3)ccc2[nH]1 [Example 5, (S)-3-methyl-1-(5-(oxazol-5-yl)-1H-benzo[d]imidazol-2-yl)butan-1-amine] | 0.093 µM |
| CC(C)C[C@@H](N)c1nc2cc(-c3ncnc4[nH]ccc34)ccc2[nH]1 [Example 8, (R)-1-(5-(7H-pyrrolo[2,3-d]pyrimidin-4-yl)-1H-benzo[d]imidazol-2-yl)-3-methylbutan-1-amine] | 0.004 µM |
| CC(C)C[C@@H](N)c1nc2cc(-c3ccnc4ccccc34)ccc2[nH]1 [Example 9, (R)-3-methyl-1-(5-(quinolin-4-yl)-1H-benzo[d]imidazol-2-yl)butan-1-amine] | 0.013 µM |
| CC(C)C[C@@H](N)c1nc2cc(-c3ccncc3F)ccc2[nH]1 [Example 10, (R)-1-(5-(3-fluoropyridin-4-yl)-1H-benzo[d]imidazol-2-yl)-3-methylbutan-1-amine] | 0.044 µM |
| COc1cnccc1-c1ccc2[nH]c([C@H](N)CC(C)C)nc2c1 [Example 11, (R)-1-(5-(3-methoxypyridin-4-yl)-1H-benzo[d]imidazol-2-yl)-3-methylbutan-1-amine] | 0.093 µM |
| CC(C)C[C@@H](N)c1nc2cc(-c3ccnc(F)c3)ccc2[nH]1 [Example 12, (R)-1-(5-(2-fluoropyridin-4-yl)-1H-benzo[d]imidazol-2-yl)-3-methylbutan-1-amine] | 0.148 µM |
| CC(C)C[C@@H](N)c1nc2cc(-c3ccnc(N(C)C)n3)ccc2[nH]1 [Example 14, (R)-4-(2-(1-amino-3-methylbutyl)-1H-benzo[d]imidazol-5-yl)-N,N-dimethylpyrimidin-2-amine] | 0.198 µM |
| CC(C)C[C@@H](N)c1nc2cc(-c3ccnc(C#N)c3)ccc2[nH]1 [Example 15, (R)-4-(2-(1-amino-3-methylbutyl)-1H-benzo[d]imidazol-5-yl)picolinonitrile] | 0.289 µM |
| CC(C)C[C@@H](N)c1nc2cc(-c3ccnc(N)n3)ccc2[nH]1 [Example 16, (R)-4-(2-(1-amino-3-methylbutyl)-1H-benzo[d]imidazol-5-yl)pyrimidin-2-amine] | 0.202 µM |
| CC(C)C[C@@H](N)c1nc2cc(-c3cc(F)nc(F)c3)ccc2[nH]1 [Example 17, (R)-1-(5-(2,6-difluoropyridin-4-yl)-1H-benzo[d]imidazol-2-yl)-3-methylbutan-1-amine] | 3.94 µM |
| CC(C)C[C@@H](N)c1nc2cc(-c3ccnc(N)c3)ccc2[nH]1 [Example 18, (R)-4-(2-(1-amino-3-methylbutyl)-1H-benzo[d]imidazol-5-yl)pyridin-2-amine] | 0.019 µM |
| Cc1n[nH]c(C)c1-c1ccc2[nH]c([C@H](N)CC(C)C)nc2c1 [Example 19, (R)-1-(5-(3,5-dimethyl-1H-pyrazol-4-yl)-1H-benzo[d]imidazol-2-yl)-3-methylbutan-1-amine] | 0.041 µM |
| COc1cc(-c2ccc3[nH]c([C@H](N)CC(C)C)nc3c2)c(F)cn1 [Example 20, (R)-1-(5-(5-fluoro-2-methoxypyridin-4-yl)-1H-benzo[d]imidazol-2-yl)-3-methylbutan-1-amine] | 0.489 µM |
| COc1cc(-c2cnco2)cc2nc([C@H](N)CC(C)C)[nH]c12 [Example 21, (R)-1-(7-methoxy-5-(oxazol-5-yl)-1H-benzo[d]imidazol-2-yl)-3-methylbutan-1-amine] | 0.033 µM |
| COc1cnccc1-c1cc(OC)c2[nH]c([C@H](N)CC(C)C)nc2c1 [Example 23, (R)-1-(7-methoxy-5-(3-methoxypyridin-4-yl)-1H-benzo[d]imidazol-2-yl)-3-methylbutan-1-amine] | 0.553 µM |
| COc1cc(-c2cc(OC)c3[nH]c([C@H](N)CC(C)C)nc3c2)ccn1 [Example 24, (R)-1-(7-methoxy-5-(2-methoxypyridin-4-yl)-1H-benzo[d]imidazol-2-yl)-3-methylbutan-1-amine] | 1.59 µM |
| COc1cc(-c2ccncc2)cc2[nH]c(CCC(C)C)nc12 [Example 25, 2-isopentyl-4-methoxy-6-(pyridin-4-yl)-1H-benzo[d]imidazole] | 0.38 µM |
| COc1cc(-c2cnco2)cc2[nH]c(CCC(C)C)nc12 [Example 26, 5-(2-isopentyl-4-methoxy-1H-benzo[d]imidazol-6-yl)oxazole] | 0.217 µM |
| CC(C)C[C@@H](N)c1nc2cc(-c3ccncc3)c(F)cc2[nH]1 [Example 30, (R)-1-(6-fluoro-5-(pyridin-4-yl)-1H-benzo[d]imidazol-2-yl)-3-methylbutan-1-amine] | 0.088 µM |
| CCn1c([C@H](N)CC(C)C)nc2ccc(-c3cnco3)cc21 [Example 32, (R)-1-(1-ethyl-6-(oxazol-5-yl)-1H-benzo[d]imidazol-2-yl)-3-methylbutan-1-amine] | 0.45 µM |
| CCn1c([C@H](N)CC(C)C)nc2ccc(-c3cn[nH]c3)cc21 [Example 34, (R)-1-(1-ethyl-6-(1H-pyrazol-4-yl)-1H-benzo[d]imidazol-2-yl)-3-methylbutan-1-amine] | 0.098 µM |
| COc1cnccc1-c1ccc2nc([C@H](N)CC(C)C)n(CC(F)(F)F)c2c1 [Example 35, (R)-1-(6-(3-methoxypyridin-4-yl)-1-(2,2,2-trifluoroethyl)-1H-benzo[d]imidazol-2-yl)-3-methylbutan-1-amine] | 0.025 µM |
| CC(C)C[C@@H](N)c1nc2ccc(-c3cnco3)cc2n1CC(F)(F)F [Example 36, (R)-3-methyl-1-(6-(oxazol-5-yl)-1-(2,2,2-trifluoroethyl)-1H-benzo[d]imidazol-2-yl)butan-1-amine] | 0.172 µM |
| COCCn1c([C@H](N)CC(C)C)nc2ccc(-c3ccncc3)cc21 [Example 38, (R)-1-(1-(2-methoxyethyl)-6-(pyridin-4-yl)-1H-benzo[d]imidazol-2-yl)-3-methylbutan-1-amine] | 0.531 µM |
| COCCn1c([C@H](N)CC(C)C)nc2ccc(-c3cnco3)cc21 [Example 39, (R)-1-(1-(2-methoxyethyl)-6-(oxazol-5-yl)-1H-benzo[d]imidazol-2-yl)-3-methylbutan-1-amine] | 6.74 µM |
| CC(C)C[C@@H](N)c1nc2ccc(-c3ccncc3)cc2n1CCO [Example 40, (R)-2-(2-(1-amino-3-methylbutyl)-6-(pyridin-4-yl)-1H-benzo[d]imidazol-1-yl)ethanol] | 0.271 µM |

Same assay, conditions: read-out: AAK1 IC50

| SMILES | IC50 |
| --- | --- |
| COc1cc(-c2ccc3[nH]c([C@H](N)CC(C)C)nc3c2)ccn1 [Example 13, (R)-1-(5-(2-methoxypyridin-4-yl)-1H-benzo[d]imidazol-2-yl)-3-methylbutan-1-amine] | 0.171 µM |
| COc1cnccc1-c1cc2nc([C@H](N)CC(C)C)[nH]c2cc1OC [Example 27, (R)-1-(6-methoxy-5-(3-methoxypyridin-4-yl)-1H-benzo[d]imidazol-2-yl)-3-methylbutan-1-amine] | 2 µM |
| COc1cc(-c2cc3nc([C@H](N)CC(C)C)[nH]c3cc2OC)ccn1 [Example 28, (R)-1-(6-methoxy-5-(2-methoxypyridin-4-yl)-1H-benzo[d]imidazol-2-yl)-3-methylbutan-1-amine] | 2 µM |
| CC(C)C[C@@H](N)c1nc2cc(F)c(-c3cnco3)cc2[nH]1 [Example 31, (R)-1-(5-fluoro-6-(oxazol-5-yl)-1H-benzo[d]imidazol-2-yl)-3-methylbutan-1-amine] | 0.032 µM |
